This note sets out measurements from US8343475B2, “Small cationic antimicrobial peptides” (priority 2006, dated 2013).

Residues, ends and D or L forms follow the SMILES beside them.

One experiment has as its system S. aureus. The experiment can be described thus: Mouse model of aggressive bacterial infection (intraperitoneal). It is filed as in vivo. As to conditions: 1.6×10^10 CFU S. aureus IP; 8 mg/kg peptide IP four hours post infection. The method, then:
FIG. 10. Ability of new antimicrobial peptides HHC-10 and HHC-36 to protect mice against Staph aureus infections. Bacterial loads in the peritoneal lavage from individual mice after 24 hours of infection are shown (solid circles). Dead animals were assigned the highest colony forming unit (CFU) count obtained in the experiment. The solid line represents the arithmetic mean for each group.
FIG. 18. […] Mice were treated with 1.6×10^10 CFU of S. aureus intraperitoneally. Four hours post infection they received a dose of 8 mg/kg peptide IP. The infection was allowed to progress for 4 or 24 hours after which mice were euthanaised and plate counts of staphylococci surviving in the peritoneum were determined. Bacterial loads in the peritoneal lavage from individual mice after 24 hours of infection are shown (solid circles). The solid line represents the arithmetic mean for each group.
FIG. 19. […] Mice were treated with 1.6×10^10 CFU of S. aureus intraperitoneally. Four hours post infection they received a dose of 8 mg/kg peptide IP. The infection was allowed to progress for 4 or 24 hours after which mice were euthanaised and plate counts of staphylococci surviving in the peritoneum were determined. Bacterial loads in the peritoneal lavage from individual mice after 24 hours of infection are shown (solid circles). The solid line represents the arithmetic mean for each group.
To further confirm this, a mouse model of aggressive bacterial infection, widely used to assess antibiotic efficacy, was utilized. Mice were treated with 1.6×10^10 CFU IP. Four hours post infection they received a dose of 4 mg/kg peptide IP. The infection was allowed to progress for 20 more hours, for a total infection time of 24 hours.
These immunomodulatory activities led to protection against infections by S. aureus. Briefly a mouse model of aggressive bacterial infection, widely used to assess antibiotic efficacy, was utilized. […] The infection was allowed to progress for 4 or 24 hours after which mice were euthanaised and plate counts of staphylococci surviving in the peritoneum were determined.

Experiment [1] deals with MCP-1 release by human PBMC. The experiment can be described thus: Chemokine induction in PBMC (capture ELISA). It is filed as cell-based. As to conditions: for Chemokine induction MCP-1: background (204) subtracted. In outline:
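Heparinized blood from healthy volunteers; Ficoll-isolated human PBMC (7.5×10^5) treated with peptides at 20 or 100 μg/ml for 24 hours at 37° C, 5% CO2. Cell-free supernatants assayed for MCP-1 by capture ELISA.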

Experiment [2] concerns CXCL1 (Gro-α) release by human PBMC. The experiment can be described thus: Chemokine induction in PBMC (capture ELISA). It is filed as cell-based. As to conditions: background (196) subtracted. A digest of the protocol:
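Human PBMC from healthy donors' heparinised blood (Ficoll), 7.5×10^5 cells treated with 20 or 100 μg/ml peptide for 24 h at 37° C, 5% CO2. Cell-free supernatants assayed for CXCL1 by capture ELISA.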
In general terms: In an ELISA, binding on a coated surface is turned into a signal by an enzyme label.

With `CC[C@H](C)[C@H](N)C(=O)N[C@@H](Cc1c[nH]c2ccccc12)C(=O)N[C@H](C(=O)N[C@H](C(=O)N[C@@H](Cc1c[nH]c2ccccc12)C(=O)N[C@@H](CCCNC(=N)N)C(=O)N[C@@H](CCCNC(=N)N)C(N)=O)[C@@H](C)CC)C(C)C` [HH18, IWVIWRR-NH2] (H-IWVIWRR-NH2; N-terminus assumed), in the experiment with S. aureus, the “protection of mice from S. aureus infections (bacterial loads in peritoneal lavage)” value is given as “Protection of mice from S. aureus infections”. The “Chemokine induction MCP-1” value in experiment [1] (20 μg/ml peptide) was determined as 1111 pg/mL; in experiment [1] (100 μg/ml peptide), 9608 pg/mL. Also, the “induction of MCP1” value in experiment [1] (20 or 100 μg/ml peptide, 24 hours (FIG. 15)) was “induced”. For the same molecule, the figures for the “Chemokine induction Gro-α” value in experiment [2] (20 μg/ml peptide) and in experiment [2] (100 μg/ml peptide) were 865 pg/mL and 2964 pg/mL, respectively.
